The values that follow are results of earlier work, collected in patent US20080004230A1, “SAM Riboswitch and Uses Thereof” (priority 2006, published 2008).

Read-outs that look alike come from different tables or passages of the source.

Data set [1] concerns the target SAM-I riboswitch RNA (yitJ homolog from B. subtilis). To be noted: read-out: binding affinity of the analog for the riboswitch RNA.
A further data set concerns SAM-I riboswitch. The conditions noted are these: binding preference of the riboswitch, SAM relative to SAH.

With `Nc1ncnc2c1ncn2[C@@H]1O[C@H](CSC[C@H](N)C(=O)O)[C@@H](O)[C@H]1O` [SAC, S-adenosylcysteine], the Kd in data set [1] (analog with one less side chain methylene group) is about 30 µM.

Turning to `Nc1ncnc2c1ncn2[C@@H]1O[C@H](CSCC[C@H](N)C(=O)O)[C@@H](O)[C@H]1O` [SAH, S-adenosylhomocysteine], the Kd in data set [1] is 0.4 µM.

As for `C[S+](CC[C@H](N)C(=O)O)C[C@H]1O[C@@H](n2cnc3c(N)ncnc32)[C@H](O)[C@@H]1O` (stereo partly drawn) [SAM, S-adenosylmethionine], the “preference for SAM over SAH” value in the data set with SAM-I riboswitch was 100 fold.
